From patent publication US20090197929A1, “Azolylmethyloxiranes, Their Use for Controlling Phytopathogenic Fungi and Agents Containing Said Compounds” (BASF SE, priority 2006, published 2009)

Experiments:
[1] = test system: Puccinia recondita; test: Protective activity against Puccinia recondita on wheat (brown rust of wheat) (Puccrt P1); type: in vivo; conditions: 250 ppm active compound, potted wheat seedlings sprayed to runoff, inoculated next day; untreated plants 90% infected
Experimental: The active compounds were prepared separately or jointly as a stock solution comprising 25 mg of active compound which was made up to 10 ml using a mixture of acetone and/or DMSO and the emulsifier Wettol EM 31 (wetting agent having emulsifying and dispersing action based on ethoxylated alkylphenols) in a volume ratio of solvent/emulsifier of 99:1. The mixture was then made up to 100 ml with water. This stock solution was diluted with the solvent/emulsifier/water mixture described to give the concentration of active compound stated below. Leaves of potted wheat seedlings were sprayed to runoff point with an aqueous suspension having the active compound concentration stated below. The next day, the treated plants were inoculated with a spore suspension of brown rust of wheat (Puccinia recondita). The plants were then placed in a chamber with high atmospheric humidity (90 to 95%) at 20 to 22° C. for 24 hours. During this time, the spores germinated and the germ tubes penetrated into the leaf tissue. The next day, the test plants were returned to the greenhouse and cultivated at temperatures between 20 and 22° C. and at 65 to 70% relative atmospheric humidity for a further 7 days. The extent of the rust fungus development on the leaves was then determined visually.

[2] = test system: Pyrenophora teres; test: Activity against net blotch of barley caused by Pyrenophora teres at 1 day protective application (Pyrnte P1); type: in vivo, Pyrenophora [syn. Drechslera] teres on barley; conditions: 250 ppm active compound, potted barley seedlings sprayed to runoff, inoculated after 24 hours, assessed after 6 days; untreated plants 90% infected
Experimental: The active compounds were prepared separately or jointly as a stock solution comprising 25 mg of active compound which was made up to 10 ml using a mixture of acetone and/or DMSO and the emulsifier Wettol EM 31 (wetting agent having emulsifying and dispersing action based on ethoxylated alkylphenols) in a volume ratio of solvent/emulsifier of 99:1. The mixture was then made up to 100 ml with water. This stock solution was diluted with the solvent/emulsifier/water mixture described to give the concentration of active compound stated below. Leaves of potted barley seedlings were sprayed to runoff point with an aqueous suspension having the active compound concentration stated below. 24 hours after the spray coat had dried on, the test plants were inoculated with an aqueous spore suspension of Pyrenophora [syn. Drechslera] teres, the net blotch pathogen. The test plants were then placed in a greenhouse at temperatures between 20 and 24° C. and at 95 to 100% relative atmospheric humidity. After 6 days, the extent of the development of the disease was determined visually in % infection of the entire leaf area.

For Fc1ccc([C@@]2(Cn3cncn3)O[C@@H]2c2cc(Cl)sc2Cl)cc1 (racemic) [1-{[(2SR,3RS)-3-(2,5-dichlorothiophen-3-yl)-2-(4-fluorophenyl)oxiran-2-yl]methyl}-1H-1,2,4-triazole], the “infection (extent of rust fungus development on the leaves, determined visually)” value [1] was 0% and the “infection (% infection of the entire leaf area, determined visually)” value [2] was 15%.
